Data reported in PubChem BioAssay (NCI).
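Each compound was tested at five concentrations against cells in 96-well plates for 48 hours. Here, GI50 denotes the concentration required for 50% inhibition of growth. TGI is the concentration that stops growth completely.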

Experiments:
Assay in all cases: NCI anticancer screen, dose series, 48 h
NCI-H226 lung = system: NCI-H226 lung
NCI-H522 lung = system: NCI-H522 lung
BT-549 breast = system: BT-549 breast
SN12C renal = system: SN12C renal
HCC-2998 colon = system: HCC-2998 colon
MDA-MB-435 = system: MDA-MB-435
HS 578T breast = system: HS 578T breast
CCRF-CEM leukemia = system: CCRF-CEM leukemia
SF-295 CNS = system: SF-295 CNS
UACC-257 melanoma = system: UACC-257 melanoma

SMILES | GI50 (NCI-H226 lung) [µM] | TGI (NCI-H226 lung) [µM] | GI50 (NCI-H522 lung) [µM] | TGI (NCI-H522 lung) [µM] | GI50 (BT-549 breast) [µM] | TGI (BT-549 breast) [µM] | GI50 (SN12C renal) [µM] | TGI (SN12C renal) [µM] | GI50 (HCC-2998 colon) [µM] | TGI (HCC-2998 colon) [µM] | GI50 (MDA-MB-435) [µM] | TGI (MDA-MB-435) [µM] | GI50 (HS 578T breast) [µM] | TGI (HS 578T breast) [µM] | GI50 (CCRF-CEM leukemia) [µM] | TGI (CCRF-CEM leukemia) [µM] | GI50 (SF-295 CNS) [µM] | TGI (SF-295 CNS) [µM] | GI50 (UACC-257 melanoma) [µM] | TGI (UACC-257 melanoma) [µM]
CC/C=C\C/C=C\C[C@H](O)C/C=C1/C(=O)C=C[C@H]1C/C=C\CCC(=O)OC | 2.32 | > 8.25 | 1.39 | 3.42 | 2.78 | > 8.25 | 2.62 | > 8.25 | 1.6 | 3.39 | 2.35 | > 8.25 | 7.66 | > 8.25 | 2.31 | 7.8 | > 8.25 | > 8.25 | – | –
C[C@]12CC/C(=N\N)C[C@@H]1CC[C@@H]1[C@@H]2CC[C@]2(C)/C(=N/N)CC[C@@H]12 | – | – | > 100 | > 100 | > 100 | > 100 | > 100 | > 100 | > 100 | > 100 | > 100 | > 100 | – | – | > 100 | > 100 | > 100 | > 100 | > 100 | > 100
CC(=N\O)/C(C)=N/O.CC(=N\O)/C(C)=N/O.CC(=N\O)/C(C)=N/O.CC(=N\O)/C(C)=N/O.[Cu].[Cu] | 23.5 | 39.2 | 18.2 | 34.1 | 19 | 33.4 | 18.8 | 35.2 | 16.8 | 30.5 | 18.5 | 33.7 | 29.6 | 65.9 | – | – | 19.9 | 37.9 | 20.2 | 34.5
O=[N+]([O-])c1cc(O)c(O)cc1-c1cn2ccsc2n1 | 76.7 | > 100 | 33 | > 100 | – | – | 85.6 | > 100 | 43.7 | > 100 | 47.3 | > 100 | – | 36 | – | – | 31.2 | 91.3 | > 100 | > 100
O=C(Nc1ncc(Cc2ccccc2)s1)c1ccc2c(c1)OCCCO2 | 1.44 | > 100 | 1.03 | > 100 | 1.93 | > 100 | 2.12 | > 100 | 0.885 | > 100 | – | – | 1.14 | > 100 | 0.524 | > 100 | 0.396 | > 100 | 1.61 | > 100
CN(C)/C=C/c1nnnn1-c1ccc(Cl)cc1 | 15.6 | 44.3 | 25.2 | 64.8 | 8.56 | 38.7 | 4.69 | 28.8 | 18.3 | 34.5 | – | – | 17.5 | 79.7 | 4.65 | 42.4 | 19 | 36.7 | 35.6 | > 100
NC(N)=N/N=C/c1c(-c2cccs2)nc2sccn12 | 13.2 | 26 | – | – | 19.3 | 33.6 | 13.4 | 26.9 | – | – | 13.2 | 25.9 | – | – | 1.61 | 27.1 | 11.5 | 23.6 | 20.3 | 37.7
NC1C2C(CC(=O)O)OCC=C3CN4CCC1(C(=O)C(=O)O)C4CC32 (stereo not drawn) | – | > 100 | – | > 100 | – | > 100 | – | > 100 | – | – | – | > 100 | – | > 100 | – | > 100 | – | > 100 | – | > 100
Nc1ccc(-c2nc3ccccc3[nH]2)c(O)c1 | 35.5 | > 100 | > 100 | > 100 | 50.9 | > 100 | 42.4 | > 100 | – | – | 28.2 | 64.6 | 21.5 | 71.7 | – | – | 26.5 | 63.4 | 18.6 | 49.2
O=Nc1c(-c2cccc([N+](=O)[O-])c2)nc2cnccn12 | – | 50.7 | – | 33.3 | – | > 100 | – | 59.7 | – | – | – | 43.1 | – | > 100 | – | 1.72 | – | > 100 | – | 41
O=C1c2ccccc2-c2nccc3cc(Cl)nc1c23 | 18.7 | > 81.5 | 0.458 | 1.61 | 7.11 | > 100 | 2.25 | > 100 | > 48.5 | > 100 | 1.41 | 2.84 | 1.99 | 14.2 | 1.06 | – | 4.61 | > 88.9 | – | –
CCOC(=O)c1cc2c(n1Cc1cc(OC)cc(OC)c1)-c1oncc1CCC2 | 23 | > 100 | 0.0194 | 0.0682 | 0.89 | > 100 | 0.252 | > 100 | 0.322 | > 100 | 0.0313 | 0.112 | 0.0492 | > 100 | 0.0542 | > 100 | 0.0291 | 0.14 | – | –
CCON=C1C(C)(C)C(C)(C)C(C)(C)C1(C)C | – | > 100 | – | > 100 | – | > 100 | – | > 100 | – | – | – | > 100 | – | > 100 | – | > 100 | – | > 100 | – | > 100
Cn1c(=O)c(Oc2cccc(F)c2)cc2cnc(NC3CCOCC3)nc21 | > 25 | > 25 | > 25 | > 25 | > 25 | > 25 | > 25 | > 25 | > 25 | > 25 | > 25 | > 25 | > 25 | > 25 | – | – | > 25 | > 25 | > 25 | > 25
CC1=C(C)CC2(SC1)C(=O)c1ccccc1C2=O | – | > 100 | – | > 100 | – | – | – | > 100 | – | > 100 | – | – | – | – | – | > 100 | – | > 100 | – | > 100
Cc1ccc(C(=O)O/N=C2/CCCCC2CN(C)C)cc1 (stereo not drawn) | – | > 100 | – | > 100 | – | – | – | > 100 | – | > 100 | – | – | – | – | – | > 100 | – | > 100 | – | > 100
CC1=C(SCc2ccccc2)C(=O)c2ccccc2C1=O | – | – | – | – | – | 32.1 | – | 40.3 | – | 57 | – | 27.9 | – | – | – | – | – | 32.5 | – | 31.4
